In US10722520B2, “Heterocyclic compounds and their use in preventing or treating bacterial infections” (MUTABILIS, priority 2016, dated 2020):

Assays:
E. cloacae P99 [1] = test: MIC of compound alone, broth microdilution; type: cell-based; settings: strain P99; compound alone
Summary of the method: (§1)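 Step one, log-phase suspension set to 5×10^5 cfu/mL final in CA-MHB. Step two, incubation at 35° C under ambient air for 16-20 h. Step three, visual reading of the lowest growth-free concentration as MIC.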

E. coli 190317 [2] = test: MIC of compound alone, broth microdilution; type: cell-based; settings: strain 190317; compound alone
Summary of the method: as §1

K. pneumoniae 6299 [3] = test: MIC of compound alone, broth microdilution; type: cell-based; settings: strain 6299; compound alone
Summary of the method: as §1

K. pneumoniae BAA-1898 [4] = test: MIC of compound alone, broth microdilution; type: cell-based; settings: strain BAA-1898; compound alone
Summary of the method: as §1

P. aeruginosa CIP107051 [5] = test: MIC of compound alone, broth microdilution; type: cell-based; settings: strain CIP107051; compound alone
Summary of the method: as §1

E. cloacae P99 [6] = test: MIC of ceftazidime (CAZ) at fixed concentration of compound (synergy), broth microdilution; type: cell-based; settings: strain P99; MIC of CAZ, compound fixed at 4 μg/mL
Description: (§2) Log phase bacterial suspensions were adjusted to a final density of 5×10^5 cfu/mL in cation-adjusted Mueller-Hinton broth (Becton-Dickinson) and added to each well (98 μL). Microplates were incubated for 16-20 h at 35° C. in ambient air. The MIC of the compounds was defined as the lowest concentration of said compounds that prevented bacterial growth as read by visual inspection.

E. coli 190317 [7] = test: as above; type: cell-based; settings: strain 190317; MIC of CAZ, compound fixed at 4 μg/mL
Description: as §2

K. pneumoniae 6299 [8] = test: as above; type: cell-based; settings: strain 6299; MIC of CAZ, compound fixed at 4 μg/mL
Description: as §2

K. pneumoniae BAA-1898 [9] = test: as above; type: cell-based; settings: strain BAA-1898; MIC of CAZ, compound fixed at 4 μg/mL
Description: as §2

P. aeruginosa CIP107051 [10] = test: as above; type: cell-based; settings: strain CIP107051; MIC of CAZ, compound fixed at 4 μg/mL
Description: as §2

AmpC (P99) = AmpC (P99) (Enterobacter cloacae, UniProt P05364); settings: read-out: IC50 β-lactamase AmpC (P99); class (C); nitrocefin 200 μM, 30-min pre-incubation, enzyme 0.2 nM
CMY-37 = CMY-37 (Citrobacter freundii, UniProt P05193); settings: read-out: IC50 β-lactamase CMY-37; class (C); nitrocefin 200 μM, 30-min pre-incubation, enzyme 0.2 nM
AmpC (PAE) = AmpC (PAE) (Pseudomonas aeruginosa, UniProt P24735); settings: read-out: IC50 β-lactamase AmpC (PAE); class (C); nitrocefin 200 μM, 30-min pre-incubation, enzyme 0.4 nM
OXA-15 = OXA-15 (Pseudomonas aeruginosa, UniProt Q51574); settings: read-out: IC50 β-lactamase OXA-15; class (D); nitrocefin 200 μM, 30-min pre-incubation, enzyme 0.4 nM
TEM-1 = TEM-1 (Escherichia coli, UniProt P62593); settings: read-out: IC50 β-lactamase TEM-1; class (A); nitrocefin 200 μM, 30-min pre-incubation, enzyme 0.1 nM
SHV-1 = SHV-1 (Klebsiella pneumoniae, UniProt P0AD64); settings: read-out: IC50 β-lactamase SHV-1; class (A); nitrocefin 200 μM, 30-min pre-incubation, enzyme 0.075 nM
CTX-M-15 = CTX-M-15 (Escherichia coli, UniProt Q9EXV5); settings: read-out: IC50 β-lactamase CTX-M-15; class (A); nitrocefin 200 μM, 30-min pre-incubation, enzyme 0.4 nM
KPC-2 = KPC-2 (Klebsiella pneumoniae, UniProt Q9F663); settings: read-out: IC50 β-lactamase KPC-2; class (A); nitrocefin 200 μM, 30-min pre-incubation, enzyme 1 nM
OXA-1 = OXA-1 (Escherichia coli, UniProt P13661); settings: read-out: IC50 β-lactamase OXA-1; class (D); nitrocefin 200 μM, 30-min pre-incubation, enzyme 0.2 nM
OXA-11 = OXA-11 (Pseudomonas aeruginosa, UniProt Q06778); settings: read-out: IC50 β-lactamase OXA-11; class (D); nitrocefin 200 μM, 30-min pre-incubation, enzyme 1.2 nM
OXA-48 = OXA-48 (Klebsiella pneumoniae, UniProt Q6XEC0); settings: read-out: IC50 β-lactamase OXA-48; class (D); nitrocefin 200 μM, 30-min pre-incubation, enzyme 0.3 nM

Molecule | MIC compounds of the invention alone (E. cloacae P99 [1]) [mg/L] | MIC compounds of the invention alone (E. coli 190317 [2]) [mg/L] | MIC compounds of the invention alone (K. pneumoniae 6299 [3]) [mg/L] | MIC compounds of the invention alone (K. pneumoniae BAA-1898 [4]) [mg/L] | MIC compounds of the invention alone (P. aeruginosa CIP107051 [5]) [mg/L] | MIC combination of CAZ and compounds of the invention at 4 μg/mL (E. cloacae P99 [6]) [mg/L] | MIC combination of CAZ and compounds of the invention at 4 μg/mL (E. coli 190317 [7]) [mg/L] | MIC combination of CAZ and compounds of the invention at 4 μg/mL (K. pneumoniae 6299 [8]) [mg/L] | MIC combination of CAZ and compounds of the invention at 4 μg/mL (K. pneumoniae BAA-1898 [9]) [mg/L] | MIC combination of CAZ and compounds of the invention at 4 μg/mL (P. aeruginosa CIP107051 [10]) [mg/L] | IC50 (AmpC (P99)) [µM] | IC50 (CMY-37) [µM] | IC50 (OXA-15) [µM] | IC50 (TEM-1) [µM] | IC50 (SHV-1) [µM] | IC50 (CTX-M-15) [µM] | IC50 (KPC-2) [µM] | IC50 (OXA-1) [µM] | IC50 (OXA-11) [µM] | IC50 (OXA-48) [µM] | further results
NCc1cnn(C2=CC3CN(C2)C(=O)N3OS(=O)(=O)[O-])c1.O=C(O)C(F)(F)F.[Na+] (stereo not drawn) [Example 15, sodium and 2,2,2-trifluoroacetate [3-(4-methyleneammoniumpyrazol-1-yl)-7-oxo-1,6-diazabicyclo[3.2.1]oct-3-en-6-yl]sulfate] | 8 | 2 | >32 | >32 | 16 | ≤0.25 | <0.25 | 0.25 | ≤0.25 | 2 | 0.08 | 0.076 | 0.049 | 0.00079 | 0.0065 | 0.0015 | 0.12 | 0.7 | 0.27 | 0.018 | IC50 (AmpC (PAE)): 0.36 µM
N#Cc1ccn(C2=CC3CN(C2)C(=O)N3OS(=O)(=O)[O-])n1.[Na+] (stereo not drawn) [Example 17, sodium [3-(3-carbonitrilepyrazol-1-yl)-7-oxo-1,6-diazabicyclo[3.2.1]oct-3-en-6-yl]sulfate] | 16 | 4 | >32 | 16 | >32 | 1 | <0.25 | 0.25 | 0.25 | 8 | 0.03 | 0.087 | 0.03 | 0.00023 | 0.001 | 0.00076 | 0.0037 | 0.1 | 0.063 | 0.0058 | IC50 (AmpC (PAE)): 0.28 µM
O=C1N2CC(n3cc(N4CCOCC4)cn3)=CC(C2)N1OS(=O)(=O)[O-].[Na+] (stereo not drawn) [Example 20] | >32 | >32 | >32 | >32 | >32 | >128 | 128 | >128 | >128 | >128 | 0.23 | 0.14 | 0.14 | 0.0013 | 0.0051 | 0.003 | 0.12 | 6.2 | 7.1 | 0.068 | IC50 (AmpC (PAE)): 0.91 µM
CC(=O)Nc1cnn(C2=CC3CN(C2)C(=O)N3OS(=O)(=O)[O-])c1.[Na+] (stereo not drawn) [Example 21, sodium [3-(4-acetamidepyrazol-1-yl)-7-oxo-1,6-diazabicyclo[3.2.1]oct-3-en-6-yl]sulfate] | >32 | 16 | >32 | >32 | >32 | 16 | 0.25 | 4 | 64 | 4 | 0.23 | 0.099 | 0.29 | 0.0061 | 0.024 | 0.0037 | 0.27 | 2.1 | 1.4 | 0.045 | IC50 (AmpC (PAE)): 0.32 µM
sodium (7-oxo-3-(3-(methoxycarbamoyl)-pyrazol-1-yl)-1,6-diazabicyclo[3.2.1]oct-3-en-6-yl) sulfate and sodium (7-oxo-3-(5-(methoxycarbamoyl)-pyrazol-1-yl)-1,6-diazabicyclo[3.2.1]oct-3-en-6-yl) sulfate [Example 27] | 16 | 8 | 32 | 32 | >32 | 2 | 0.25 | 0.5 | 16 | 16 |  |  | 0.11 | 0.0011 | 0.0048 | 0.0012 | 0.01 | 0.13 | 0.069 | 0.0061 | 
sodium [3-[3-[2-[tert-butyl(dimethyl)silyl]oxyethyl]pyrazol-1-yl]-7-oxo-1,6-diazabicyclo[3.2.1]oct-3-en-6-yl]sulfate [Example 69] | 32 | 4 | 32 | 32 | >32 | 1 | ≤0.25 | 1 | 64 | 8 |  |  | 0.23 | 0.00061 | 0.0023 | 0.00095 | 0.032 | 0.31 | 0.12 | 0.014 | 
